Results as given in publication PMC8490401, “Chemical proteomic profiling reveals protein interactors of the alarmones diadenosine triphosphate and tetraphosphate” (Nature Communications, 2021).
One block for each compound: values may come before it.

How the values were obtained:
[1] = biological target: T1, decapping scavenger protein (DcpS) (Homo sapiens, UniProt Q96C86); test: HPLC assay: Ap4A hydrolysed by purified DcpS and slows m7Gp3G cleavage; assay type: biochemical
T1 construct: His-tagged DcpS
T1 sequence (Q96C86 2-337): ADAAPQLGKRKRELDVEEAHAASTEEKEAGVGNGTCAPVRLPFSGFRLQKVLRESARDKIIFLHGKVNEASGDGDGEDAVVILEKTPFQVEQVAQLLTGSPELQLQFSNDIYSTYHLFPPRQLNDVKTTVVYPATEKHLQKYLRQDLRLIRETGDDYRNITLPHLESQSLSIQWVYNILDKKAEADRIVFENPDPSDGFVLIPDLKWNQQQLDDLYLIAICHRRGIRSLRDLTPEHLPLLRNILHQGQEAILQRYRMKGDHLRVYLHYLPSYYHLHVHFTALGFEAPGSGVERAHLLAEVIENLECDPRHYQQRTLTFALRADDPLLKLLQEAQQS

[2] = biological target: T1, decapping scavenger protein (DcpS); test: HPLC assay: Ap3A hydrolysed by purified DcpS and slows m7Gp3G cleavage; assay type: biochemical
PGK1 = biological target: T2, PGK1 (Homo sapiens, UniProt P00558); test: fluorescence polarization, direct titration of purified protein; assay type: binding
T2 sequence (P00558 2-417): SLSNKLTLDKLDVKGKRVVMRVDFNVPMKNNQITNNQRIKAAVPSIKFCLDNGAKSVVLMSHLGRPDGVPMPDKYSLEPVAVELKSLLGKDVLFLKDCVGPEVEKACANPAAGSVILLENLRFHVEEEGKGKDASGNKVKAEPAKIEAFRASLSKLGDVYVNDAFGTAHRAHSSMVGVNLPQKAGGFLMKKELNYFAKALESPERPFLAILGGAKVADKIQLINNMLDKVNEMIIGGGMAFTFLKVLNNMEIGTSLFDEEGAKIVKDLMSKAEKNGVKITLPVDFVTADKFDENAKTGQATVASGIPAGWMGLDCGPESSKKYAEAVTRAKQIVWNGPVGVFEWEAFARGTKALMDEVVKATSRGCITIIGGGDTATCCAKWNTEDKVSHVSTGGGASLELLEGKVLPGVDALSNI

LDHA = LDHA (Homo sapiens, UniProt P00338); test: as above; assay type: binding
[3] = biological target: T1, decapping scavenger protein (DcpS); test: HPLC cleavage assay with purified DcpS; assay type: biochemical

Compound: Nc1ncnc2c1ncn2[C@@H]1O[C@H](COP(=O)(O)OP(=O)(O)OP(=O)(O)OP(=O)(O)OC[C@H]2O[C@@H](n3cnc4c(N)ncnc43)[C@H](O)[C@@H]2O)[C@@H](O)[C@H]1O [Ap4A, diadenosine tetraphosphate]
HPLC assay: Ap4A hydrolysed by purified DcpS and slows m7Gp3G cleavage [1]: demonstrating that both Ap3A and Ap4A can be cleaved by DcpS

Compound: Nc1ncnc2c1ncn2[C@@H]1O[C@H](COP(=O)(O)OP(=O)(O)OP(=O)(O)OC[C@H]2O[C@@H](n3cnc4c(N)ncnc43)[C@H](O)[C@@H]2O)[C@@H](O)[C@H]1O [Ap3A, diadenosine triphosphate]
HPLC assay: Ap3A hydrolysed by purified DcpS and slows m7Gp3G cleavage [2]: demonstrating that both Ap3A and Ap4A can be cleaved by DcpS

Kd (PGK1): 37.4 ± 1.62 µM | Kd (LDHA): 35.3 ± 0.69 µM
Compound: Nc1ncnc2c1ncn2[C@@H]1O[C@H](COP(=O)(O)OP(=O)(O)OP(=O)(O)OC[C@H]2O[C@@H](n3cnc4c(N)nc(C#CCCCNC(=O)c5ccc6c(c5)C(=O)OC65c6ccc(O)cc6Oc6cc(O)ccc65)nc43)[C@H](O)[C@@H]2O)[C@@H](O)[C@H]1O [F-Ap3A]

Compound: C[n+]1cn([C@@H]2O[C@H](COP(=O)(O)OP(=O)([O-])OP(=O)(O)OC[C@H]3O[C@@H](n4cnc5c(=O)[nH]c(N)nc54)[C@H](O)[C@@H]3O)[C@@H](O)[C@H]2O)c2nc(N)[nH]c(=O)c21 [m^7Gp3G]
HPLC cleavage assay with purified DcpS [3]: HPLC profiles for the hydrolysis of m^7Gp3G (peak c) catalyzed by DcpS
